In patent US20250002954A1, “Novel Compound, Use Thereof, and Method for Producing Same, and Compound-Containing Composition, Method for Producing 4-Trehalosamine, and Microorganism” (Microbial Chemistry Research Foundation, priority 2021, published 2025):

What was measured:
[1] = system: Mycobacterium smegmatis mc^2 (ATCC 700084); assay: Staining of mycobacterium with IMCTA-fluorescein, IMCTA-biotin or IMCTA-azide; assay type: cell-based; settings: for ingestion into bacterial cells and fluorescence (staining): 10 μg/mL IMCTA-fluorescein, 30 μg/mL IMCTA-biotin, 10 μg/mL IMCTA-azide, 37° C., 8 hours; for ingestion in the presence of sucrose (blocking): sucrose 1% or 3%
[2] = Measurement of critical micelle concentration (CMC) with CMC assay kit; assay type: physicochemical
Experimental: (§1) For the IMCTA-C8, IMCTA-C9, IMCTA-C10, IMCTA-C11, IMCTA-C12, IMCTA-C13, IMCTA-C14, and IMCTA-C15 (IMCTA-Cn) that were obtained in synthesis examples 1 to 8 and for n-dodecyl-β-D-maltoside (DDM) as control, “critical micelle concentration (CMC)”, “micelle size”, and “Hydrophilic-Lipophilic Balance (HLB) value” were measured or calculated in the following manner.
CMC was measured with a Detergent Critical Micelle Concentration (CMC) Assay Kit (CMC1000, manufactured by ProFoldin) according to the product protocol.

[3] = Measurement of micelle size by dynamic light scattering; assay type: physicochemical
Experimental: as §1
Micelle sizes were measured by dynamic light scattering with Zetasizer Nano S (manufactured by Malvern Panalytical).

[4] = system: human ovarian cancer cells OVK18 and human malignant melanoma cells Mewo; assay: Autophagy inducing effect on cultured cells (western blotting of autophagy-related proteins); assay type: cell-based; settings: for accumulation of PCD (precursors of cathepsin D) / concentration giving same or higher LC3-II expression, relative to trehalose / p62 / pAkt / phosphorylation of p70 S6K: 24 hours; for expression of LC3-II (autophagy marker): 24 hours treatment, western blotting
Experimental: Expression and phosphorylation patterns of autophagy-related proteins when human ovarian cancer cells or human malignant melanoma cells were treated with 4-trehalosamine and trehalose analog for 24 hours were determined by western blotting.
Human ovarian cancer cells OVK18 (obtained from RIKEN BRC) and human malignant melanoma cells Mewo (JCRB0066) were each inoculated on a 12-well microplate at 8×10^4 cells/mL/well and cultured in DMEM culture medium at 37° C. for 72 hours, after which they were treated with test samples.
The test samples used were the 4-trehalosamine (4TA) obtained in the <Purification process> of production example 10, trehalose (TRH), the IMCTA-Cn compounds obtained in synthesis examples 1 to 8, trehalose ester (TRH-Cn) (manufactured by Dojindo Laboratories), n-dodecyl-β-D-maltoside (DDM), maltose (MLT), sucrose (SCR), and rapamycin (RM). Untreated cells without addition of compounds were used as control.
In treatment with the test samples, in order to avoid contact of a compound with locally high concentration with cells, a half of the culture fluid in each well was taken, and a required amount of test sample was dissolved in it. After dissolving it sufficiently, it was returned to the original well and treated at 37° C. for 24 hours.
Subsequently, culture medium containing the test samples was removed, washed once with PBS, and dissolved with 2×SDS sample buffer not containing 2-mercaptoethanol (2-ME) or bromphenol blue (BPB). After measuring the protein concentration in the dissolved sample with a BCA protein assay kit (manufactured by Thermo Fisher Scientific), 2-ME and BPB were added and the sample was boiled for 5 minutes, which was used as a sample for western blotting.
The western blotting was performed in a similar manner to test example 4 except that anti-LC3 antibody, which is a marker for autophagy, anti-p62, anti-cathepsin D antibody, anti-Phospho-Akt (Ser473) antibody, anti-Akt antibody, anti-Phospho-p70 S6K (T389) antibody, and anti-p70 S6K antibody (all manufactured by Cell Signaling Technology) were used at 1/2,000 dilution as the primary antibodies in the method described in test example 4.
The results for human ovarian cancer cells OVK18 are shown in FIGS. 20A to 20C, and the results for human malignant melanoma cells Mewo are shown in FIGS. 20D to 20F. In FIGS. 20A, 20B, 20D, and 20E, “PCD” denotes precursors of cathepsin D and “CD-HC” denotes cathepsin D heavy chain.

[N-]=[N+]=N[C@@H]1C(CO)O[C@H](O[C@H]2OC(CO)[C@@H](O)C(O)C2O)C(O)C1O (some centres unmarked) [IMCTA-azide, 4-azide-4-deoxy-trehalose]
ingestion into bacterial cells and fluorescence (staining) [1]: ingested into Mycobacterium smegmatis bacterial cells and emitted fluorescence | fluorescence strength compared among labelers ([1]; same amount of labeler): strongest fluorescence | ingestion in the presence of sucrose (blocking) [1]: suppression of ingestion was observed | ingestion in the presence of trehalose (blocking) ([1]; trehalose 1% or 3%): suppression of ingestion was observed

CCCCCCCCCCCCCCCN[C@@H]1C(CO)O[C@H](O[C@H]2OC(CO)[C@@H](O)C(O)C2O)C(O)C1O (some centres unmarked) [IMCTA-C15]
CMC [2]: 0.06 mM | Micelle size [3]: 92.5 ± 49 nm | accumulation of PCD (precursors of cathepsin D) [4]: no accumulation of PCD was observed | concentration giving same or higher LC3-II expression, relative to trehalose [4]: several thousand times lower than trehalose | p62 [4]: accumulation trend of p62 | pAkt [4]: decreasing trend of pAkt | phosphorylation of p70 S6K [4]: p70 S6K was not dephosphorylated | expression of LC3-II (autophagy marker) [4]: particularly strong expression

CCCCCCCCCCCN[C@@H]1C(CO)O[C@H](O[C@H]2OC(CO)[C@@H](O)C(O)C2O)C(O)C1O (some centres unmarked) [IMCTA-C11]
CMC [2]: 0.96 mM | Micelle size [3]: 15.9 ± 6.5 nm

CCCCCCCCCN[C@@H]1C(CO)O[C@H](O[C@H]2OC(CO)[C@@H](O)C(O)C2O)C(O)C1O (some centres unmarked) [IMCTA-C9]
CMC [2]: 3.84 mM | Micelle size [3]: 5.5 ± 1.3 nm

CCCCCCCCCCN[C@@H]1C(CO)O[C@H](O[C@H]2OC(CO)[C@@H](O)C(O)C2O)C(O)C1O (some centres unmarked) [IMCTA-C10]
CMC [2]: 2.67 mM | Micelle size [3]: 5.9 ± 1.8 nm

CCCCCCCCN[C@@H]1C(CO)O[C@H](O[C@H]2OC(CO)[C@@H](O)C(O)C2O)C(O)C1O (some centres unmarked) [IMCTA-C8]
CMC [2]: 8.02 mM | Micelle size [3]: 4.3 ± 1.7 nm

CCCCCCCCCCCCCN[C@@H]1C(CO)O[C@H](O[C@H]2OC(CO)[C@@H](O)C(O)C2O)C(O)C1O (some centres unmarked) [IMCTA-C13]
CMC [2]: 0.24 mM | Micelle size [3]: 17.3 ± 10.9 nm | accumulation of PCD (precursors of cathepsin D) [4]: no accumulation of PCD was observed | concentration giving same or higher LC3-II expression, relative to trehalose [4]: several thousand times lower than trehalose | p62 [4]: accumulation trend of p62 | pAkt [4]: decreasing trend of pAkt | phosphorylation of p70 S6K [4]: p70 S6K was not dephosphorylated | expression of LC3-II (autophagy marker) [4]: particularly strong expression

O=C(CCCC[C@@H]1SC[C@@H]2NC(=O)N[C@@H]21)N[C@@H]1C(CO)O[C@H](O[C@H]2OC(CO)[C@@H](O)C(O)C2O)C(O)C1O (some centres unmarked) [IMCTA-biotin]
ingestion into bacterial cells and fluorescence (staining) [1]: ingested into Mycobacterium smegmatis bacterial cells and emitted fluorescence | staining pattern ([1]; fluorescence microscope): patch-like staining pattern | ingestion in the presence of sucrose (blocking) [1]: some suppression of ingestion by sucrose

CCCCCCCCCCCCN[C@@H]1C(CO)O[C@H](O[C@H]2OC(CO)[C@@H](O)C(O)C2O)C(O)C1O (some centres unmarked) [IMCTA-C12]
CMC [2]: 0.58 mM | Micelle size [3]: 13.7 ± 6.4 nm

CCCCCCCCCCCCO[C@@H]1O[C@H](CO)[C@@H](O[C@H]2O[C@H](CO)[C@@H](O)[C@H](O)[C@H]2O)[C@H](O)[C@H]1O [DDM, n-dodecyl-β-D-maltoside, reference compound]
CMC [2]: 0.23 mM | Micelle size [3]: 6.1 ± 0.1 nm
